The values that follow come from patent US7470794B2, “Preparation and use of ortho-sulfonamido aryl hydroxamic acids as matrix metalloproteinase inhibitors” (Wyeth, priority 2000, dated 2008).

A word on the IC50: it is the point on the concentration scale where inhibition reaches its midpoint. Low readings indicate greater potency in that assay, high ones weaker potency in that assay. In general, inhibition refers to the percentage by which the read-out fell short of the control. Higher therefore signals a strong effect. As a reminder, the melting point is the temperature of the solid-liquid transition.

In one data set the target is T1, MMP-1 (Homo sapiens, UniProt P03956).
T1 sequence (P03956 100-469): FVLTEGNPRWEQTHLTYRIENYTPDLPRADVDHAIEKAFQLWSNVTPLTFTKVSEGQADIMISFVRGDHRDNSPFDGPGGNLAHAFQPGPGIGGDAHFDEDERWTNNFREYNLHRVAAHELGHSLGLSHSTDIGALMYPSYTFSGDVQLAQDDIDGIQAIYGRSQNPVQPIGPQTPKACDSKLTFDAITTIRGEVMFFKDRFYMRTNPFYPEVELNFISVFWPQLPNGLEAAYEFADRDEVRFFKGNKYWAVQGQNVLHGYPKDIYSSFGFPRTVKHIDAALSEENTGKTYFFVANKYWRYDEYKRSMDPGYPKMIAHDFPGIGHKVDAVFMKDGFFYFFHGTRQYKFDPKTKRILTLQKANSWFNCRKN
Nature of the data set: MMP-1 inhibition (thiopeptide or fluorescent peptide substrate assay). Type of data set: biochemical. Here is the method:
(§1) These assays are based on the cleavage of a thiopeptide substrates such as Ac-Pro-Leu-Gly(2-mercapto-4-methyl-pentanoyl)-Leu-Gly-OEt by the matrix metalloproteinases MMP-1, MMP-13 (collagenases) or MMP-9 (gelatinase), which results in the release of a substrate product that reacts colorimetrically with DTNB (5,5′-dithiobis(2-nitro-benzoic acid)). The enzyme activity is measured by the rate of the color increase. The thiopeptide substrate is made up fresh as a 20 mM stock in 100% DMSO and the DTNB is dissolved in 100% DMSO as a 100 mM stock and stored in the dark at room temperature. Both the substrate and DTNB are diluted together to 1 mM with substrate buffer (50 mM HEPES pH 7.5, 5 mM CaCl2) before use. The stock of enzyme is diluted with assay buffer (50 mM HEPES, pH 7.5, 5 mM CaCl2, 0.02% Brij) to the desired final concentration. The assay buffer, enzyme, vehicle or inhibitor, and DTNB/substrate are added in this order to a 96 well plate (total reaction volume of 200 μl) and the increase in color is monitored spectrophotometrically for 5 minutes at 405 nm on a plate reader and the increase in color over time is plotted as a linear line.
(§2) Alternatively, a fluorescent peptide substrate is used. In this assay, the peptide substrate contains a fluorescent group and a quenching group. Upon cleavage of the substrate by an MMP, the fluorescence that is generated is quantitated on the fluorescence plate reader. The assay is run in HCBC assay buffer (50 mM HEPES, pH 7.0, 5 mM Ca^+2, 0.02% Brij, 0.5% Cysteine), with human recombinant MMP-1, MMP-9, or MMP-13. The substrate is dissolved in methanol and stored frozen in 1 mM aliquots. For the assay, substrate and enzymes are diluted in HCBC buffer to the desired concentrations. Compounds are added to the 96 well plate containing enzyme and the reaction is started by the addition of substrate. The reaction is read (excitation 340 nm, emission 444 nm) for 10 min. and the increase in fluorescence over time is plotted as a linear line.
(§3) For either the thiopeptide or fluorescent peptide assays, the slope of the line is calculated and represents the reaction rate. The linearity of the reaction rate is confirmed (r^2>0.85). The mean (x±sem) of the control rate is calculated and compared for statistical significance (p<0.05) with drug-treated rates using Dunnett's multiple comparison test. Dose-response relationships can be generated using multiple doses of drug and IC50 values with 95% CI are estimated using linear regression.

The next data set deals with MMP-9 (Homo sapiens, UniProt P14780). Nature of the data set: MMP-9 inhibition (thiopeptide or fluorescent peptide substrate assay). Type of data set: biochemical. Here is the method:
as §1, §2, §3

Another data set deals with MMP-13 (Homo sapiens, UniProt P45452). Nature of the data set: MMP-13 inhibition (thiopeptide or fluorescent peptide substrate assay). Type of data set: biochemical. As for the experimental part:
as §1, §2, §3

The target in data set [1] is T2, tumor necrosis factor-alpa converting enzyme (TACE; Immunex) (Homo sapiens, UniProt P78536).
T2 construct: purchased Immunex
T2 sequence (P78536 215-824): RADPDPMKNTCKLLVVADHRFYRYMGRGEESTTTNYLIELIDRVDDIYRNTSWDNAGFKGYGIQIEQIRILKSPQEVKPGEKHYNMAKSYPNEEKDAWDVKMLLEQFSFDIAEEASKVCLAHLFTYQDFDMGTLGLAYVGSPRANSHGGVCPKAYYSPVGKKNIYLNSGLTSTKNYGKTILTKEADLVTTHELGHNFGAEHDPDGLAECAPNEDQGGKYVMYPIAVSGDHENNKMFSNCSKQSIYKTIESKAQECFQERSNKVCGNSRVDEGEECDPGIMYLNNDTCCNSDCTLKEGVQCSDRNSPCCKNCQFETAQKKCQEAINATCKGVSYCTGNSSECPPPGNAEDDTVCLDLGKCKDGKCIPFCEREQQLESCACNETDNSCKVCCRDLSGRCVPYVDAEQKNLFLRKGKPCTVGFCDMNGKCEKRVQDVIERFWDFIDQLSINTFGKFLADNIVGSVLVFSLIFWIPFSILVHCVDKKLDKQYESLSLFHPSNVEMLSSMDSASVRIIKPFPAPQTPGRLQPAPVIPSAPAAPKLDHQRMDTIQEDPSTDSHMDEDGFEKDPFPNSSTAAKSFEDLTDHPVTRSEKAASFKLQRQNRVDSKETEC
Nature of the data set: TACE inhibition (fluorescent peptidyl substrate assay). It counts as biochemical. The note with it: 1 μM test compound. As for the experimental part: Using 96-well black microtiter plates, each well receives a solution composed of 10 μL tumor necrosis factor-alpa converting enzyme (TACE; Immunex, final concentration 1 μg/mL), 70 μL Tris buffer, pH 7.4 containing 10% glycerol (final concentration 10 mM), and 10 μL of test compound solution in DMSO (final concentration 1 μM, DMSO concentration <1%) and incubated for 10 minutes at room temperature. The reaction is initiated by addition of a fluorescent peptidyl substrate (final concentration 100 μM) to each well and then shaking on a shaker for 5 sec.
The reaction is read (excitation 340 nm, emission 420 nm) for 10 min. and the increase in fluorescence over time is plotted as a linear line. The slope of the line is calculated and represents the reaction rate.
The linearity of the reaction rate is confirmed (r^2>0.85). The mean (x±sem) of the control rate is calculated and compared for statistical significance (p<0.05) with drug-treated rates using Dunnett's multiple comparison test. Dose-response relationships can be generate using multiple doses of drug and IC50 values with 95% CI are estimated using linear regression.

Read-outs that look alike come from different tables or passages of the source. A value given as a limit tells only on which side of the number the result lay.

MMP-9, sequence (P14780 94-707): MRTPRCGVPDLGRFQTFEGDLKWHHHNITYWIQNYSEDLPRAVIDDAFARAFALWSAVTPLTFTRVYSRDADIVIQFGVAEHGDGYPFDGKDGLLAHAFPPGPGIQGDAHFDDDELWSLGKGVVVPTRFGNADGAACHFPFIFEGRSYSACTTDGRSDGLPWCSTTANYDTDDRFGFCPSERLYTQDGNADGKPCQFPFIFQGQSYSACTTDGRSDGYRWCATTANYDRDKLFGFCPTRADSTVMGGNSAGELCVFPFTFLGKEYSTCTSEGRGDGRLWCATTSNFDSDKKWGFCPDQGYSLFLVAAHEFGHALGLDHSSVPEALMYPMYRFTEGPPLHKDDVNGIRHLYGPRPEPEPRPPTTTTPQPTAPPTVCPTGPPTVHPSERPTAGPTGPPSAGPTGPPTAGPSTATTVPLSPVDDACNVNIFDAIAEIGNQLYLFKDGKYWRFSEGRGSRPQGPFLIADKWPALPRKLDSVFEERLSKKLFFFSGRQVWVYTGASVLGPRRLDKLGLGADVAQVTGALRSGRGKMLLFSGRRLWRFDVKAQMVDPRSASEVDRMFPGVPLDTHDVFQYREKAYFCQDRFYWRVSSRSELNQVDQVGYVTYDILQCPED

On to “N-{4-[4-({2-[(hydroxyamino)carbonyl]-6, N-dimethylanilino}sulfonyl)phenoxy]butyl}-1,3-benzodioxole-5-carboxamide [Example 16]”, for which the IC50 against MMP-1 was 0.999 µM; against MMP-9 it was 55.7 nM; on MMP-13, 83.5 nM. For the same compound, in data set [1], the “TACE % inhibition @ 1 μM” value came to 27.4%.

Consider `Cc1cccc(C(=O)NO)c1N(C)S(=O)(=O)c1ccc(OCCCNC(=O)c2ccc3c(c2)OCO3)cc1` [Example 14, N-{3-[4-({2-[(hydroxyamino)carbonyl]-6, N-dimethylanilino}sulfonyl)phenoxy]propyl}-1,3-benzodioxole-5-carboxamide], for which the melting point fell in the range of 102 to 112 °C. This compound also had an IC50 at MMP-1 of 1.48 µM. At MMP-9, this compound returned an IC50 of 63.6 nM. On MMP-13, this compound showed an IC50 of 110 nM. This compound returned an inhibition at 1 µM in data set [1] of 42.1%.

With `Cc1cccc(C(=O)NO)c1N(C)S(=O)(=O)c1ccc(OCCNC(=O)c2cc3ccccc3s2)cc1` [Example 12, Benzo[b]thiophene-2-carboxylic acid(2-{4-[(2-hydroxycarbamoyl-6-methyl-phenyl)-methyl-sulfamoyl]-phenoxy}-ethyl)-amide], the melting point fell in the range of 169 to 171 °C. The IC50 against MMP-1 (cells printed in μM) was over 10 µM. This compound also had an IC50 on MMP-9 of 914 nM. Also, on MMP-13, the IC50 is 595 nM. Besides, at 1 µM the inhibition in data set [1] was 15.2%.

Turning to `Cc1cccc(C(=O)NO)c1N(C)S(=O)(=O)c1ccc(OCCCNC(=O)c2cc3ccccc3o2)cc1` [Example 6, Benzofuran-2-carboxylic acid(3-{4-[(2-hydroxycarbamoyl-6-methyl-phenyl)-methyl-sulfamoyl]-phenoxy}-propyl)-amide], the melting point is 148 to 150 °C. This compound came in with an IC50 against MMP-1 of 5.45 µM. In addition, the IC50 against MMP-9 was 510 nM. Also, the IC50 at MMP-13 turned out to be 4.9 nM. Also, the inhibition at 1 µM in data set [1] came to 21.3%.

The compound `Cc1cc(C)c(N(Cc2ccccc2)S(=O)(=O)c2ccc(OCCNC(=O)c3cc4ccccc4o3)cc2)c(C(=O)NO)c1` [Example 31, Benzofuran-2-carboxylic acid(2-{4-[benzyl-(2-hydroxycarbamoyl-4,6-dimethyl-phenyl)-sulfamoyl]-phenoxy}-ethyl)-amide] gave an IC50 against MMP-13 of 17.1 nM. The same compound came in with an inhibition at 1 µM in data set [1] of 18.9%.

`Cc1cccc(C(=O)NO)c1N(C)S(=O)(=O)c1ccc(OCCCNC(=O)c2cc3ccccc3s2)cc1` [Example 27, N-{3-[4-({2-[(Hydroxyamino)carbonyl]-6-dimethylanilino}-sulfonyl)phenoxy]propyl}-1-benzothiophene-2-carboxamide] gave a melting point of 100 to 105 °C. This compound also had an IC50 against MMP-1 (cells printed in μM) of 30 µM. Inhibition at MMP-9 was half-maximal at 1390 nM (IC50). On MMP-13, the IC50 stood at 43 nM. The compound also gave an inhibition at 1 µM in data set [1] of 22%.

For the compound `Cc1cccc(C(=O)NO)c1N(C)S(=O)(=O)c1ccc(OCCCCNC(=O)c2cc3ccccc3o2)cc1` [Example 8, Benzofuran-2-carboxylic acid(4-{4-[(2-hydroxycarbamoyl-6-methyl-phenyl)-methyl-sulfamoyl]-phenoxy}-butyl)-amide], the melting point fell in the range of 131 to 134 °C. The same compound had an IC50 at MMP-1 of 5.12 µM. The same compound came in with an IC50 against MMP-9 of 84 nM. Inhibition against MMP-13 was half-maximal at 467 nM (IC50). Besides, in data set [1], the inhibition at 1 µM turned out to be 43.6%.

`Cc1cccc(C(=O)NO)c1N(C)S(=O)(=O)c1ccc(OCCCNC(=O)c2cc3ccccc3[nH]2)cc1` [Example 10, 1H-Indole-2-carboxylic acid(3-{4-[(2-hydroxycarbamoyl-6-methyl-phenyl)-methyl-sulfamoyl]-phenoxy}-propyl)-amide] came in with a melting point of 144 to 146 °C. Besides, the IC50 on MMP-1 turned out to be 5.64 µM. On MMP-9, this compound displayed an IC50 of 305 nM. Moreover, at MMP-13, half-maximal inhibition (IC50) required 178 nM. Moreover, the inhibition at 1 µM in data set [1] came out at 35.7%.

Compound `Cc1cccc(C(=O)NO)c1N(C)S(=O)(=O)c1ccc(OCCNC(=O)c2ccc3ccccc3n2)cc1` [Example 4, Quinoline-2-carboxylic acid(2-{4-[(2-hydroxycarbamoyl-6-methyl-phenyl)-methyl-sulfamoyl]-phenoxy}-ethyl)-amide] gave a melting point of 114 to 121 °C. Further, at MMP-1, 4.24 µM corresponded to half-maximal inhibition (IC50). The compound further returned an IC50 at MMP-9 of 337 nM. The IC50 against MMP-13 came to 73 nM. In data set [1], this compound had an inhibition at 1 µM of 19.9%.
